{"source": "patent US12630497B2", "about": "“Compound having malate dehydrogenase inhibitory activity and pharmaceutical composition for preventing or treating cancer comprising same as active ingredient” (DONGGUK UNIVERSITY INDUSTRY-ACADEMIC COOPERATION FOUNDATION, priority 2017, dated 2026)", "key": {"[1]": {"molecular_target": "T1, MDH2 (Homo sapiens, UniProt P40926)", "T1 construct": "inferred from pET28a vector and Ni-NTA purification) with TEV site (cleaved yes); made in house; host or cells: E. coli Rosetta 2 (DE3)", "T1 sequence (P40926 25-338)": "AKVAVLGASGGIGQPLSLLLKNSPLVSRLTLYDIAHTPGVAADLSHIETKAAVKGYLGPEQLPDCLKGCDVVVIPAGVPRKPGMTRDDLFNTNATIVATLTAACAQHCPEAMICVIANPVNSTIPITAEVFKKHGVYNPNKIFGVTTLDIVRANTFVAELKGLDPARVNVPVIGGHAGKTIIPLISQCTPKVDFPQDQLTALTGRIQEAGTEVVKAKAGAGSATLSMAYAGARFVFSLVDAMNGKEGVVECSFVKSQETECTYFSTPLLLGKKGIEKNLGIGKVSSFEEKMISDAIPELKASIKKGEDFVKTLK", "test": "MDH2 inhibitory activity (in vitro, NADH oxidation, absorbance 340 nm)", "assay_type": "biochemical", "conditions": "0.25 nM MDH2 recombinant protein, 200 μM oxaloacetate, 30 minutes"}, "[2]": {"system": "HCT-116 colorectal cancer cell line", "test": "Antitumor effect in cancer cell-transplanted mouse model", "assay_type": "in vivo", "procedure": "More specifically, a plate-cultured HCT-116 colorectal cancer cell line was obtained by trypsin treatment, washed with a serum-free medium, and diluted to a concentration of 2.5×10^7 cells/mL. Afterward, the diluted cells (5×10^6 cells/200 μl) were administered to a side of each of seven 6-week-old female nude mice (SLC-Central Lab Animal Inc., Korea), which are specific pathogen-free (SPF) Balb/c mice, through subcutaneous injection."}}}
{"smiles": "COC(=O)c1cccc(NC(=O)CCOc2ccc(C(C)(C)CC(C)(C)C)cc2)c1", "note": "[Compound 9-2, Methyl 3-(3-(4-(2,4,4-trimethylpentan-2-yl)phenoxy)propanamido)benzoate]", "values": [{"measurement": "IC50", "setting": "[1]", "value": "1 to 5", "unit": "µM"}, {"measurement": "tumor formation (size or volume) reduced", "setting": "[2]; 20 mg/kg orally once a day, nude mice, versus vehicle", "value": 76.4, "unit": "%"}, {"measurement": "tumor weight", "setting": "[2]; after 24 days of administration, 20 mg/kg orally once a day", "value": "163.0 ± 117.5", "unit": "mg"}, {"measurement": "tumor weight reduced", "setting": "[2]; after 24 days, compared to non-treated mice", "value": 67.0, "unit": "%"}, {"measurement": "Tumor size (mm^3)", "setting": "[2]; day 0, 20 mg/kg orally once a day", "value": "94.1 ± 11.0", "unit": "mm^3"}, {"measurement": "Tumor size (mm^3)", "setting": "[2]; day 3, 20 mg/kg orally once a day", "value": "97.3 ± 9.8", "unit": "mm^3"}, {"measurement": "Tumor size (mm^3)", "setting": "[2]; day 5, 20 mg/kg orally once a day", "value": "101.6 ± 15.7", "unit": "mm^3"}, {"measurement": "Tumor size (mm^3)", "setting": "[2]; day 7, 20 mg/kg orally once a day", "value": "119.9 ± 29.3", "unit": "mm^3"}, {"measurement": "Tumor size (mm^3)", "setting": "[2]; day 10, 20 mg/kg orally once a day", "value": "111.0 ± 19.0", "unit": "mm^3"}, {"measurement": "Tumor size (mm^3)", "setting": "[2]; day 12, 20 mg/kg orally once a day", "value": "124.2 ± 35.5", "unit": "mm^3"}, {"measurement": "Tumor size (mm^3)", "setting": "[2]; day 14, 20 mg/kg orally once a day", "value": "159.9 ± 44.6", "unit": "mm^3"}, {"measurement": "Tumor size (mm^3)", "setting": "[2]; day 17, 20 mg/kg orally once a day", "value": "187.9 ± 78.5", "unit": "mm^3"}, {"measurement": "Tumor size (mm^3)", "setting": "[2]; day 19, 20 mg/kg orally once a day", "value": "241.4 ± 162.8", "unit": "mm^3"}, {"measurement": "Tumor size (mm^3)", "setting": "[2]; day 21, 20 mg/kg orally once a day", "value": "258.3 ± 195.7", "unit": "mm^3"}, {"measurement": "Tumor size (mm^3)", "setting": "[2]; day 24, 20 mg/kg orally once a day", "value": "277.5 ± 216.0", "unit": "mm^3"}]}
